PubChem BioAssay (NCI)
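Assay format: 96-well plates, 48-hour exposure. Here, GI50 denotes the concentration required for 50% inhibition of growth. TGI marks complete inhibition of growth.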

Legend:
Assay in all cases: NCI tumour cell line growth inhibition, 48 h
NCI-H23 lung = tested on: NCI-H23 lung
CCRF-CEM leukemia = tested on: CCRF-CEM leukemia
SK-OV-3 ovarian = tested on: SK-OV-3 ovarian
SK-MEL-5 melanoma = tested on: SK-MEL-5 melanoma
786-0 renal = tested on: 786-0 renal
SF-295 CNS = tested on: SF-295 CNS
SW-620 colon = tested on: SW-620 colon
MALME-3M melanoma = tested on: MALME-3M melanoma
K-562 leukemia = tested on: K-562 leukemia
ACHN renal = tested on: ACHN renal

SMILES | TGI (NCI-H23 lung) [µM] | TGI (CCRF-CEM leukemia) [µM] | TGI (SK-OV-3 ovarian) [µM] | TGI (SK-MEL-5 melanoma) [µM] | TGI (786-0 renal) [µM] | TGI (SF-295 CNS) [µM] | TGI (SW-620 colon) [µM] | TGI (MALME-3M melanoma) [µM] | TGI (K-562 leukemia) [µM] | TGI (ACHN renal) [µM] | GI50 (NCI-H23 lung) [µM] | GI50 (CCRF-CEM leukemia) [µM] | GI50 (SK-OV-3 ovarian) [µM] | GI50 (SK-MEL-5 melanoma) [µM] | GI50 (SF-295 CNS) [µM] | GI50 (SW-620 colon) [µM] | GI50 (MALME-3M melanoma) [µM] | GI50 (K-562 leukemia) [µM] | GI50 (786-0 renal) [µM] | GI50 (ACHN renal) [µM]
O=C1OC2CCCC[C@@H]2C2C[C@]34CCCCC3[C@@H](C(=O)O4)C12 (stereo partly specified) | > 100 | > 100 | > 100 | > 100 | > 100 | > 100 | > 100 | > 100 | > 100 | > 100 | – | – | – | – | – | – | – | – | – | –
Nc1ccn(C2CCC(CO)O2)c(=O)n1 (stereo unspecified) | > 1000 | > 1000 | > 1000 | > 1000 | > 1000 | > 1000 | > 1000 | > 1000 | > 1000 | > 1000 | > 1000 | 108 | > 1000 | > 1000 | > 1000 | > 1000 | > 1000 | > 1000 | – | –
CC(C)(C[C@H]1CN(S(=O)(=O)c2cccc(C(F)(F)F)c2)c2cc(-c3cc(F)cc(OC(F)F)c3)ccc2O1)C(=O)O | 26.3 | 24.7 | 27.4 | 14.9 | 20.7 | 18.5 | 21.5 | 25.1 | 30.3 | 23.1 | 9.4 | 4.72 | 13.2 | 3.56 | 4.12 | 5.02 | 10.2 | 4.83 | 6.98 | 11.1
COc1ccc(CCN2COc3c([C@@H](C)CCC=C(C)C)ccc(C)c3C2)cc1OC | 6.08 | 21.1 | 31.1 | 3.04 | 4.16 | 6.56 | 4.08 | 3.18 | 93.5 | 20.2 | 2.55 | 3.49 | 11.8 | 1.64 | 2.02 | 1.91 | 1.53 | 3.7 | 1.98 | 6.11
O=c1cccc(C#CC#CC2=CCCCC2)o1 | 2.87 | 5.5 | 27.9 | 8.89 | 4.35 | 16.4 | 18.2 | 13.8 | > 41.8 | 10 | 1.14 | 0.649 | 10.5 | 3.3 | 9.04 | 3.4 | 7.34 | 3.26 | 1.59 | 4.49
CCOC(=O)NC(=O)c1cn(CCCOC(=O)CCCCCCCCCCC(=O)OCCCn2cc(C(=O)NC(=O)OCC)c(=O)[nH]c2=O)c(=O)[nH]c1=O | > 100 | > 100 | > 100 | > 100 | > 100 | > 100 | > 100 | > 100 | > 100 | > 100 | – | – | – | – | – | – | – | – | – | –
O=C1/C(=C/c2cccc([N+](=O)[O-])c2)COc2ccc(Br)cc21 | > 100 | > 100 | > 100 | > 100 | > 100 | > 100 | > 100 | > 100 | > 100 | > 100 | – | – | – | – | – | – | – | – | – | –
COc1cc(/C=C(\C#N)c2ccccc2)cc(OC)c1 | > 100 | > 100 | > 100 | > 100 | > 100 | 73.7 | > 100 | > 100 | 79.7 | > 100 | – | – | – | – | – | – | – | – | – | –
Clc1ccc2c(c1)-c1c3c(nn1-c1ccccc1)-c1ccccc1SC3O2 (stereo unspecified) | > 100 | > 100 | > 100 | > 100 | > 100 | > 100 | > 100 | > 100 | > 100 | > 100 | – | – | – | – | – | – | – | – | – | –
CCSc1nc(SCC)c2cn[nH]c2n1 | > 100 | > 100 | > 100 | 41.8 | > 100 | > 100 | > 100 | > 100 | > 100 | > 100 | > 100 | 41.5 | 39 | 18 | > 100 | 39.5 | > 100 | 67.1 | > 100 | 44.3
CCn1c(-c2ccc(OC(C)=O)cc2)c(C)c2cc(OC(C)=O)ccc21 | 57.4 | 53.9 | 74.5 | 27.1 | 86.9 | 96.7 | 82.2 | 76 | 55.3 | > 100 | – | – | – | – | – | – | – | – | – | –
O=c1cc(NC2CCN(CCCc3ccccc3)CC2)c2cc(Cl)ccc2o1 | 30.3 | 79.3 | 29.8 | 24.4 | 21.2 | 29.9 | 30.5 | 25.4 | 20.5 | 17.6 | 14.6 | 18.2 | 16.1 | 12 | 15.1 | 15 | 11.2 | 3.86 | 6.55 | 4.86
O=S(=O)(Nc1cc(Sc2cccc3cccnc23)c(O)c2ccccc12)c1ccccc1 | 12.8 | 16 | 17.9 | 3.05 | 10.7 | 15 | 11.6 | 9.65 | 16.5 | 5.54 | 1.93 | 0.426 | 4.3 | 1.36 | 2.84 | 1.04 | 2.72 | 0.929 | 0.79 | 0.772
C/C(N=NC(=S)N(C)C)=C1\C=CC=CN1O | > 100 | > 63.5 | > 100 | > 100 | > 52.2 | > 100 | > 100 | > 67.2 | > 100 | > 100 | – | – | – | – | – | – | – | – | – | –
O=C1[C@@H]2C(c3ccccc3F)=NO[C@@H]2C(=O)N1c1ccc(Cc2ccc(N3C(=O)[C@H]4C(c5ccccc5F)=NO[C@H]4C3=O)cc2)cc1 | > 100 | > 70.8 | > 100 | > 100 | > 100 | > 100 | > 100 | > 100 | > 100 | > 100 | – | – | – | – | – | – | – | – | – | –
Cc1ccc(-c2nc3ccc(Cl)cc3c(=O)n2N2C(=O)CSC2c2ccccc2Cl)cc1 (stereo unspecified) | > 100 | > 100 | 9.9 | > 100 | > 100 | > 100 | > 100 | > 100 | > 100 | > 100 | > 100 | > 100 | 2.89 | 20 | 4.73 | > 100 | 5.97 | > 100 | 3.62 | 0.627
O=C(c1ccccc1)C1OC12C(=O)Nc1ccccc12 (stereo unspecified) | 89.4 | 25.2 | > 100 | 47.3 | > 100 | 81.8 | 62.6 | > 100 | 24.3 | > 100 | – | – | – | – | – | – | – | – | – | –
O=C(CCC1OCCO1)Nc1cc(NCc2ccccc2)ccc1OCc1ccccc1 | > 100 | 45.7 | > 100 | 35.3 | > 100 | > 100 | > 100 | 62.7 | > 100 | > 100 | – | – | – | – | – | – | – | – | – | –
O=C(Nc1c(Cl)cc([N+](=O)[O-])cc1Cl)C(=O)C(C1OC(=O)c2ccccc21)[N+](=O)[O-] (stereo unspecified) | > 100 | > 100 | > 100 | > 100 | > 100 | > 100 | > 100 | > 100 | > 100 | > 100 | – | – | – | – | – | – | – | – | – | –
ClCc1cccc(Cn2cnc3nc(Cl)nc(Cl)c32)c1 | 2.56 | 0.973 | 22 | 1.94 | 1.76 | 3.78 | 1.67 | 13 | 2.95 | 0.837 | 1.29 | 0.31 | 8.41 | 0.614 | 2.02 | 0.419 | 6.15 | 1.48 | 0.697 | 0.396
COc1cc(C(=O)c2cc(C)c3[nH]c4ccc(C)cc4c3c2C)cc(OC)c1OC | > 100 | > 100 | > 100 | < 0.0146 | 3.17 | – | > 100 | > 100 | > 100 | > 100 | < 0.01 | < 0.01 | < 0.0307 | < 0.01 | < 0.01 | < 0.01 | < 0.01 | < 0.01 | < 0.01 | < 0.01
Br[C](Br)(Br)[Hg][c]1ccccc1 | 23 | 9.13 | 33.1 | 24.8 | 30.2 | 30 | 8.01 | 3.99 | 5.02 | 30.8 | 9.3 | 1.49 | 19 | 11.7 | 15.6 | 1.65 | 1.31 | 0.275 | 16.2 | 17.1
C[C@]12CC[C@@H]3c4cc(OCC(F)(F)F)c(O)cc4/C(=N/O)C[C@H]3[C@@H]1CC[C@@H]2O | 12.7 | < 0.0292 | 0.439 | 12.5 | – | 1.95 | > 48.1 | 29.6 | – | > 64 | 0.0787 | – | – | – | 0.0611 | 0.0403 | – | 0.0213 | 0.029 | 0.065
